US10344025B2, “GLS1 inhibitors for treating disease” (Board of Regents, The University of Texas System, priority 2014, dated 2019)

Test system: A549 cells
Test: Proliferation Assay (A549 viability, Cell Titer Fluor, 72 hours)
Type: cell-based
Settings: Homo sapiens, A549, 72 h
Method: A549 cells were routinely maintained in RPMI 1640 media (Gibco catalog number 11875-093) supplemented with 10% dialyzed fetal bovine serum using a humidified incubator (37° C., 5% CO2 and ambient O2). In preparation for the viability assay, cells were inoculated into 384-well black CulturPlates (Perkin Elmer) at a density of 1000 cells/well in a volume of 40 uL. Following a 24-hour incubation at 37° C., 5% CO2 and ambient O2, cells were treated with compound (10 uL) in a final DMSO concentration of 0.5% (v/v). The microplates were then incubated for 72 hours (37° C., 5% CO2 and ambient O2). Cell Titer Fluor (Promega) was subsequently added (10 uL of 6× reagent) and mixed for 15 minutes at room temperature. The plates were then incubated for 30 minutes (37° C., 5% CO2 and ambient O2) and fluorescence was subsequently read on the Perkin Elmer Envision plate reader. IC50 values were calculated using a four-parameter logistic curve fit.
Non-limiting examples include the following compounds and pharmaceutically acceptable salts thereof. […] “ND” indicates no data.

| EC50 | SMILES |
| --- | --- |
| < 100 nM | O=C(NCc1cc(C2CC2)ccn1)c1cn(CCC(F)Cn2cc(C(=O)NCc3cccc(C4CC4)c3)nn2)nn1 (centres unmarked) [Example 134, 1-[4-(4-{[(3-cyclopropylphenyl)methyl]carbamoyl}-1H-1,2,3-triazol-1-yl)-3-fluorobutyl]-N-[(4-cyclopropylpyridin-2-yl)methyl]-1H-1,2,3-triazole-4-carboxamide] |
| 100 to 500 nM | CNC(=O)c1cn(CCCCc2ccc(NC(=O)Cc3cc(C(F)(F)F)ccn3)nn2)nn1 [Example 210, N-methyl-1-(4-(6-(2-(4-(trifluoromethyl)pyridin-2-yl)acetamido)pyridazin-3-yl)butyl)-1H-1,2,3-triazole-4-carboxamide] |
| < 100 nM | O=C(Cc1ccccc1)Nc1ccc(CCCCn2cc(C(=O)NCc3ccccc3)nn2)nn1 [Example 5, N-Benzyl-1-(4-(6-(2-phenylacetamido)pyridazin-3-yl)butyl)-1H-1,2,3-triazole-4-carboxamide] |
| < 100 nM | CNC(=O)c1cn(CCCCc2ccc(NC(=O)Cc3cc(-c4ccc(F)cc4C(F)(F)F)ccn3)nn2)nn1 [Example 606, 1-(4-(6-(2-(4-(4-fluoro-2-(trifluoromethyl)phenyl)pyridin-2-yl)acetamido)pyridazin-3-yl)butyl)-N-methyl-1H-1,2,3-triazole-4-carboxamide] |
| < 100 nM | O=C(Cc1ccccn1)Nc1ccc(CCCCn2cc(C(=O)NCc3cc(C(F)(F)F)ccn3)nn2)nn1 [Example 203, 1-(4-(6-(2-(pyridin-2-yl)acetamido)pyridazin-3-yl)butyl)-N-((4-(trifluoromethyl)pyridin-2-yl)methyl)-1H-1,2,3-triazole-4-carboxamide] |
| 100 to 500 nM | CNC(=O)c1cn(CCCCc2ccc(NC(=O)Cc3ccc(Cl)nc3)nn2)nn1 [Example 544, 1-(4-{6-[2-(6-chloropyridin-3-yl)acetamido]pyridazin-3-yl}butyl)-N-methyl-1H-1,2,3-triazole-4-carboxamide] |
| < 100 nM | CNC(=O)c1cn(CCCCc2ccc(NC(=O)Cc3cc(-c4cccc(Cl)c4OC(F)(F)F)ccn3)nn2)nn1 [Example 608, 1-(4-(6-(2-(4-(3-chloro-2-(trifluoromethoxy)phenyl)pyridin-2-yl)acetamido)pyridazin-3-yl)butyl)-N-methyl-1H-1,2,3-triazole-4-carboxamide] |
| 500 to 5000 nM | CC(C)NC(=O)c1cn(CCCCc2ccc(NC(=O)Cc3cccc(OC(F)(F)F)c3)nn2)nn1 [Example 526, N-(propan-2-yl)-1-[4-(6-{2-[3-(trifluoromethoxy)phenyl]acetamido}pyridazin-3-yl)butyl]-1H-1,2,3-triazole-4-carboxamide] |
| < 100 nM | CNC(=O)c1cn(C[C@@H](F)CCc2ccc(NC(=O)Cc3cc(-c4cccc(OC(F)(F)F)c4)ccn3)nn2)nn1 [Example 257, (S)-1-(2-fluoro-4-(6-(2-(4-(3-(trifluoromethoxy)phenyl)pyridin-2-yl)acetamido)pyridazin-3-yl)butyl)-N-methyl-1H-1,2,3-triazole-4-carboxamide] |
| 500 to 5000 nM | O=C(Cc1cccc(OC(F)(F)F)c1)Nc1ccc(CCCCn2cc(C(=O)NCCO)nn2)nn1 [Example 528, N-(2-hydroxyethyl)-1-[4-(6-{2-[3-(trifluoromethoxy)phenyl]acetamido}pyridazin-3-yl)butyl]-1H-1,2,3-triazole-4-carboxamide] |
| < 100 nM | CNC(=O)c1cn(CCCCc2ccc(NC(=O)Cc3cc(-c4cccc(OC(F)(F)F)c4)ccn3)nn2)nn1 [Example 192, N-methyl-1-(4-(6-(2-(4-(3-(trifluoromethoxy)phenyl)pyridin-2-yl)acetamido)pyridazin-3-yl)butyl)-1H-1,2,3-triazole-4-carboxamide] |
| < 100 nM | CNC(=O)c1cn(CCCCc2ccc(NC(=O)Cc3cc(-c4cccc(OC(F)(F)F)c4F)ccn3)nn2)nn1 [Example 607, 1-(4-(6-(2-(4-(2-fluoro-3-(trifluoromethoxy)phenyl)pyridin-2-yl)acetamido)pyridazin-3-yl)butyl)-N-methyl-1H-1,2,3-triazole-4-carboxamide] |
| 100 to 500 nM | CNC(=O)c1cn(C[C@@H](F)CCc2ccc(NC(=O)Cc3ccccn3)nn2)nn1 [Example 256, (S)-1-(2-fluoro-4-(6-(2-(pyridin-2-yl)acetamido)pyridazin-3-yl)butyl)-N-methyl-1H-1,2,3-triazole-4-carboxamide] |
| 100 to 500 nM | CNC(=O)c1cn(CCCCc2ccc(NC(=O)Cc3cccc(OC(F)(F)F)c3)nn2)nn1 [Example 157, N-methyl-1-(4-(6-(2-(3-(trifluoromethoxy)phenyl)acetamido)pyridazin-3-yl)butyl)-1H-1,2,3-triazole-4-carboxamide] |
| < 100 nM | CNC(=O)c1cn(CCCCc2ccc(NC(=O)Cc3cc(-c4cc(F)ccc4C)ccn3)nn2)nn1 [Example 609, 1-(4-(6-(2-(4-(5-fluoro-2-methylphenyl)pyridin-2-yl)acetamido)pyridazin-3-yl)butyl)-N-methyl-1H-1,2,3-triazole-4-carboxamide] |
| < 100 nM | CNC(=O)c1cn(C[C@H](F)CCc2ccc(NC(=O)Cc3cc(-c4cccc(OC(F)(F)F)c4)ccn3)nn2)nn1 [Example 255, (R)-1-(2-fluoro-4-(6-(2-(4-(3-(trifluoromethoxy)phenyl)pyridin-2-yl)acetamido)pyridazin-3-yl)butyl)-N-methyl-1H-1,2,3-triazole-4-carboxamide] |
| 100 to 500 nM | CNC(=O)c1cn(CCCCc2ccc(NC(=O)Cc3cc(OCC(F)(F)F)ccn3)nn2)nn1 [Example 225, N-methyl-1-(4-(6-(2-(4-(2,2,2-trifluoroethoxy)pyridin-2-yl)acetamido)pyridazin-3-yl)butyl)-1H-1,2,3-triazole-4-carboxamide] |
| < 100 nM | N#CCNC(=O)c1cn(CCCCc2ccc(NC(=O)Cc3cccc(OC(F)(F)F)c3)nn2)nn1 [Example 527, N-(cyanomethyl)-1-[4-(6-{2-[3-(trifluoromethoxy)phenyl]acetamido}pyridazin-3-yl)butyl]-1H-1,2,3-triazole-4-carboxamide] |
| < 100 nM | CNC(=O)c1cn(CC(F)CCc2ccc(NC(=O)Cc3cc(C(F)(F)F)ccn3)nn2)nn1 (centres unmarked) [Example 248, 1-(2-fluoro-4-(6-(2-(4-(trifluoromethyl)pyridin-2-yl)acetamido)pyridazin-3-yl)butyl)-N-methyl-1H-1,2,3-triazole-4-carboxamide] |
| 100 to 500 nM | CNC(=O)c1cn(CCCCc2ccc(NC(=O)Cc3cc(Br)ccn3)nn2)nn1 [Example 200, 1-(4-(6-(2-(4-bromopyridin-2-yl)acetamido)pyridazin-3-yl)butyl)-N-methyl-1H-1,2,3-triazole-4-carboxamide] |
| 100 to 500 nM | CNC(=O)c1cn(CCCCc2ccc(NC(=O)Cc3cncc(Br)c3)nn2)nn1 [Example 546, 1-(4-{6-[2-(5-bromopyridin-3-yl)acetamido]pyridazin-3-yl}butyl)-N-methyl-1H-1,2,3-triazole-4-carboxamide] |
| 100 to 500 nM | CC(C)NC(=O)c1nnc(CCCCn2cc(C(=O)NCc3cccc(OC(F)(F)F)c3)nn2)s1 [Example 43, N-(propan-2-yl)-5-{4-[4-({[3-(trifluoromethoxy)phenyl]methyl}carbamoyl)-1H-1,2,3-triazol-1-yl]butyl}-1,3,4-thiadiazole-2-carboxamide] |
| 100 to 500 nM | CNC(=O)c1cn(C[C@H](F)CCc2ccc(NC(=O)Cc3ccccn3)nn2)nn1 [Example 254, (R)-1-(2-fluoro-4-(6-(2-(pyridin-2-yl)acetamido)pyridazin-3-yl)butyl)-N-methyl-1H-1,2,3-triazole-4-carboxamide] |
| 100 to 500 nM | CNC(=O)c1cn(CCCCc2ccc(NC(=O)Cc3ccccn3)nn2)nn1 [Example 167, N-methyl-1-(4-{6-[2-(pyridin-2-yl)acetamido]pyridazin-3-yl}butyl)-1H-1,2,3-triazole-4-carboxamide] |

| SMILES | EC50 |
| --- | --- |
| CNC(=O)c1cn(CCCCc2ccc(NC(=O)Cc3cncc(OC4CC(F)(F)C4)c3)nn2)nn1 [Example 202, 1-(4-(6-(2-(5-(3,3-difluorocyclobutoxy)pyridin-3-yl)acetamido)pyridazin-3-yl)butyl)-N-methyl-1H-1,2,3-triazole-4-carboxamide] | 100 to 500 nM |
| O=C(Cc1cncc(OC2CC(F)(F)C2)c1)Nc1ccc(CCCCn2cc(C(=O)NCc3ccccn3)nn2)nn1 [Example 231, 1-(4-(6-(2-(5-(3,3-difluorocyclobutoxy)pyridin-3-yl)acetamido)pyridazin-3-yl)butyl)-N-(pyridin-2-ylmethyl)-1H-1,2,3-triazole-4-carboxamide] | < 100 nM |
| CNC(=O)c1cn(CCCCc2ccc(NC(=O)Cc3cc(OC4CC(F)(F)C4)ccn3)nn2)nn1 [Example 261, 1-(4-(6-(2-(4-(3,3-difluorocyclobutoxy)pyridin-2-yl)acetamido)pyridazin-3-yl)butyl)-N-methyl-1H-1,2,3-triazole-4-carboxamide] | < 100 nM |
| CNC(=O)c1cn(C[C@H](F)CCc2ccc(NC(=O)Cc3cc(OC4CC(F)(F)C4)ccn3)nn2)nn1 [Example 272, (R)-1-(4-(6-(2-(4-(3,3-difluorocyclobutoxy)pyridin-2-yl)acetamido)pyridazin-3-yl)-2-fluorobutyl)-N-methyl-1H-1,2,3-triazole-4-carboxamide] | < 100 nM |
| O=C(Cc1cncc(OC2CC(F)(F)C2)c1)Nc1ccc(CCCCn2cc(C(=O)NCc3cc(C(F)(F)F)ccn3)nn2)nn1 [Example 230, 1-(4-(6-(2-(5-(3,3-difluorocyclobutoxy)pyridin-3-yl)acetamido)pyridazin-3-yl)butyl)-N-((4-(trifluoromethyl)pyridin-2-yl)methyl)-1H-1,2,3-triazole-4-carboxamide] | < 100 nM |
